Targets include Carbonic anhydrase 9 (Homo sapiens, UniProt Q16790); Carbonic anhydrase 2 (Homo sapiens, UniProt P00918); Carbonic anhydrase 1 (Homo sapiens, UniProt P00915).
Experiment [1] concerns the target Carbonic anhydrase 5A, mitochondrial (Homo sapiens, UniProt P35218).
Description: Inhibition of recombinant human mitochondrial isozyme CA VA

Carbonic anhydrase 5A, mitochondrial, sequence (P35218 whole entry): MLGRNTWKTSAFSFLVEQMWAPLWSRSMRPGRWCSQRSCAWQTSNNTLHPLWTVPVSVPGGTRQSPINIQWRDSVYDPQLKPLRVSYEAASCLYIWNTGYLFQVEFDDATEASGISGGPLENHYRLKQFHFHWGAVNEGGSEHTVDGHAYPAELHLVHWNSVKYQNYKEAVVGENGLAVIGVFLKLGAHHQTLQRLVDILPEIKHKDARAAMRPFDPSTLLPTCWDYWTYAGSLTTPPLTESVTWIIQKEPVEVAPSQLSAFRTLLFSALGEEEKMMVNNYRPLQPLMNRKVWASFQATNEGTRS
Carbonic anhydrase 1, sequence (P00915 whole entry): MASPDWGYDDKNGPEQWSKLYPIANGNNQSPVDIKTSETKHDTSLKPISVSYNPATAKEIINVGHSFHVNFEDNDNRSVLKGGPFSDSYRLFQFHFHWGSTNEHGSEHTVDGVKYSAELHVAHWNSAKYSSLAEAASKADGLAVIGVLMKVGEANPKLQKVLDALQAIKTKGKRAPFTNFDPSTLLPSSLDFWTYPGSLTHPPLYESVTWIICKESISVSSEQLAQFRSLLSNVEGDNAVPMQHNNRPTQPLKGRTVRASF
Description for Carbonic anhydrase 1: Inhibition of recombinant human cytosolic isozyme CA I
Description for Carbonic anhydrase 2: Inhibition of recombinant human cytosolic isozyme CA II
Description for Carbonic anhydrase 9: Inhibition of cloned human transmembrane, tumor-associated isozyme CA IX

With `NS(=O)(=O)C(F)(F)c1cccc(Br)c1`, affinity on Carbonic anhydrase 9 was put at a Ki of 1490 nM.
On the same count and under the same terms, next, `Cc1cc(=O)oc2cc(CS(N)(=O)=O)ccc12`: 240 nM.
As for `C[C@]12CC[C@@H]3c4ccc(CS(N)(=O)=O)cc4CC[C@H]3[C@@H]1CCC2=O`, the Ki at Carbonic anhydrase 2 was determined as 80 nM; on Carbonic anhydrase 1, 116 nM; on Carbonic anhydrase 9, 208 nM; in experiment [1], 1460 nM.
`NS(=O)(=O)C(F)(F)c1ccccc1Br` showed a Ki at Carbonic anhydrase 9 of 9280 nM. In other words, the single-digit micromolar range.
Still for that read-out and setting: for `NS(=O)(=O)C(F)(F)c1ccc([N+](=O)[O-])cc1` the value was 2420 nM.
With `Cc1cc(=O)oc2cc(OS(N)(=O)=O)ccc12`, the Ki at Carbonic anhydrase 2 turned out to be 25 nM.
On Carbonic anhydrase 9, `NS(=O)(=O)C(F)(F)c1ccc(Br)cc1` showed a Ki of 7730 nM.
The same measure, in the same setting: next, `Cc1ccc(C(F)(F)S(N)(=O)=O)cc1`: 250 nM; `Cc1cc(=O)oc2cc(C(F)(F)S(N)(=O)=O)ccc12`: 195 nM; `NS(=O)(=O)C(F)(F)c1ccccc1` [PHENYLDIFLUOROMETHANESULFONAMIDE]: 8500 nM.
In the case of `C[C@]12CC[C@@H]3c4ccc(C(F)(F)S(N)(=O)=O)cc4CC[C@H]3[C@@H]1CCC2=O`, the Ki at Carbonic anhydrase 2 was 670 nM; on Carbonic anhydrase 1, 96 nM; on Carbonic anhydrase 9, 1730 nM; in experiment [1], 129 nM.
`NS(=O)(=O)Cc1ccccc1` [PHENYLMETHANESULFONAMIDE]: at Carbonic anhydrase 9, the inhibitory constant (Ki) was 9300 nM.
